Where only a bound is given, the exact number is not on record here.

Tested on in one series: not listed separately
The series is described as follows: Kinetic solubility determination in PBS. Format: physicochemical. The note with it: PBS 1X pH 7.4, 2.0% DMSO, 24 hour incubation at ambient temperature. As to the method:
Kinetic solubility buffer (phosphate buffered saline (PBS, 1×) at pH 7.4) was prepared from PBS (10×) solution, (Fisher Scientific, Pittsburgh, Pa., USA, 10×), by adding PBS (50 mL, 10×) to approximately water (450 mL HPLC grade). The volume of the solution was then adjusted to 500 mL for a total dilution factor of 1:10 and a final PBS concentration of 1×. The pH of the final solution (PBS (1×)) was measured and found to be 7.4.
A DMSO stock solution (typically 10 mM or greater) was used for each compound to be tested. A final DMSO concentration of 2.0% and maximum theoretical compound concentration of typically 200 μM (or greater) was achieved by diluting an aliquot (6 μl) of each stock with kinetic solubility buffer (294 μl, PBS (1×) at pH 7.4) using a liquid handling system (Hamilton STARlet, Hamilton Robotics, Inc., Reno, Nev., USA) and incubated directly in a solubility filter plate (Millipore, Billerica, Mass., USA). Following 24 hour incubation at ambient temperature (20.5-21.7° C.), each sample was vacuum filtered. The filtrate was injected into the chemiluminescent nitrogen detector for quantification (Automated Discovery Workstation, Analiza, Inc., Cleveland, Ohio, USA). Each result was reported both in μM and μg/mL units. Three separate on-board performance indicating standards were assayed in triplicate with each test compound to ensure test results were within the acceptable range.
The equimolar nitrogen response of the detector was calibrated using standards which spanned the dynamic range of the instrument from 0.08 to 4500 μg/ml nitrogen. Each filtrate was quantified with respect to this calibration curve. Each calculated solubility value was corrected for background nitrogen present in the DMSO, and buffer used to prepare each sample. All reported values for samples containing adjacent nitrogen atoms in a ring structure were corrected for the expected non-equimolar response. Each calculated solubility result assumed that each sample was free of nitrogen containing impurities and was stable under the assay conditions. Analyses were performed at Analiza Inc. (Cleveland, Ohio, USA) by published methods (Bhattachar, S. N., et al, J. Pharma. BioMed Anal. 41:152-7 2006).
Regarding `CC[C@H](C)[C@H](NC(=O)Cc1csc2ccccc12)C(=O)N[C@H]1CCc2cccc3c2N(C1=O)[C@H](C(=O)NCc1c[nH]nn1)C3` [Willoughby 20, reference compound], the “Solubility in aqueous PBS Buffer (1X, pH 7.4), uM” value is 4.2-4.9 uM and the “Solubility in aqueous PBS Buffer (1X, pH 7.4), ug/mL” value was 2.6-3.0 ug/mL.

The same series, now with this note: phosphate buffered saline (PBS 1×), 21 °C, pH 7.4, aqueous buffer, kinetic from dmso stock, PBS 1X pH 7.4, 2.0% DMSO, 24 hour incubation at ambient temperature, read-out: Solubility in aqueous PBS Buffer (1X, pH 7.4).
`CC[C@H](C)[C@H](NC(=O)Cc1ccccc1)C(=O)NCC(=O)N1c2ccccc2C[C@H]1C(=O)NCc1csnn1` [Example B2, (2S)-1-{2-[(2S,3S)-3-Methyl-2-(2-Phenylacetamido)Pentanamido]Acetyl}-N-(1,2,3-Thiadiazol-4-Ylmethyl)-2,3-Dihydro-1H-Indole-2-Carboxamide]: the solubility at 24 h came to 12.6 µM.

Staying with this series, now noted: phosphate buffered saline (PBS 1×), 21 °C, pH 7.4, aqueous buffer, kinetic from dmso stock, PBS 1X pH 7.4, 2.0% DMSO, 24 hour incubation at ambient temperature, read-out: Solubility in aqueous PBS Buffer (1X, pH 7.4), ug/mL.
Consider `CC[C@H](C)[C@H](NC(=O)Cc1ccccc1)C(=O)NCC(=O)N1c2ccccc2C[C@H]1C(=O)NCc1csnn1` [Example B2, (2S)-1-{2-[(2S,3S)-3-Methyl-2-(2-Phenylacetamido)Pentanamido]Acetyl}-N-(1,2,3-Thiadiazol-4-Ylmethyl)-2,3-Dihydro-1H-Indole-2-Carboxamide], for which the solubility at 24 h worked out at 8.4 µg/mL.

For the next series, the target named is T1, human Granzyme B (hGzmB) (Homo sapiens, UniProt P10144).
T1 construct: purchased Froelich Lab, Northshore University Health Systems Research Institute, Evanston, Ill., USA
T1 sequence (P10144 21-247): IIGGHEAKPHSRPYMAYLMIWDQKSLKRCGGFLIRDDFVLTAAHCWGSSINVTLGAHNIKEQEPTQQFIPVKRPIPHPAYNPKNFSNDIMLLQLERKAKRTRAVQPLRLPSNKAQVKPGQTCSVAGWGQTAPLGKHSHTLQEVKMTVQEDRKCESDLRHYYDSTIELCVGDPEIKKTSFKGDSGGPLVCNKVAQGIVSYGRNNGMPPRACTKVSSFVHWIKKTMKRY
The series is described as follows: Human Granzyme B enzymatic inhibition assay (fluorogenic, kinetic). Format: biochemical. The following applies: activity codes, Table 7; read-out: IC50 Activity Range. As to the method:
A specific 2× assay buffer was prepared for the enzyme to be tested (see Table 2 for final 1× assay buffer compositions). If the assay buffer included DTT, it was added immediately prior to running the assay. A 2× enzyme mix was prepared (see Table 3 for enzyme assay conditions) at 80 uL per well. Compounds were screened at one or two appropriate concentrations (to determine the percent inhibition at those concentrations) and/or a full dose response curve (typically 8 points, to identify the IC50) in duplicate, triplicate, or higher replicates as needed. An appropriate control was also assessed in full dose response, in duplicate for each assay/plate. Background control wells consisted of 1× assay buffer, DMSO (5% v/v) and substrate. Positive control wells consisted of enzyme, DMSO (5% v/v) and substrate. Test compounds and control compounds were diluted in DMSO to […] the final desired concentration. For example, a test compound may be tested in dose response, in serial, tripling dilution condition starting at 20 uM and ending at 9.1 nM (or any appropriate concentration range and dilution scheme). Control compounds were prepared similarly. Diluted compounds were prepared in a dilution plate and transferred to the reaction plate (96-well medium binding plate (Greiner Bio-One FLUOTRAC™)) to allow for the desired final concentrations when added to the enzyme with AB. After mixing, the reaction plate was placed on a shaker (at 300 RPM) for 5 min, followed by incubation (covered) on the bench, for 20 min. Plates were warmed to reaction temperature (see Table 3) for a total incubation time of 30 min. Plates so prepared were ready for addition of substrate and the subsequent reaction.
(§1) An appropriate substrate for each assay was prepared in advance at 2× the final desired concentration (see Table 2) in DMSO. The appropriate substrate mix was added to each appropriate well on the reaction plate, and the plate was read immediately in the TECAN plate reader (TECAN INFINITE® M1000 Pro), set to the correct wavelength as needed for each assay (see Table 3) using 25 cycles, kinetic interval of 1 min, number of reads per well of 20 with shaking set to 1 s, double orbital, 2 mm amplitude. For fluorescent assays the gain was set to optimal (50%).
An in vitro fluorogenic detection assay for assessing the IC50 and/or percent inhibition at a given concentration of inhibitors against human Granzyme B (hGzmB) enzyme was performed as described in Example D1. When appropriate, percent inhibition data was collected and fitted to generate IC50 data using GraphPad Prism 5 (GraphPad Software, La Jolla Calif. USA, www.graphpad.com) and its non-linear regression analysis tools or other equivalent tools. […]
as §1, with “5)” for “2)”, “assay buffer. 30 uL of the” for “DMSO. The”, “6)” for “3)”, “15” for “25”, “(100% with gain regulation) for all assays except human GzmB which was set to 85 (with the z set at 23000 um).” for “(50%).”
An in vitro fluorogenic detection assay for assessing the IC50 and/or percent inhibition at a given concentration of inhibitors against human Granzyme B (hGzmB) enzyme was performed as described in Example D5. When appropriate, percent inhibition data was collected and fitted to generate IC50 data using GraphPad Prism 5 (GraphPad Software, La Jolla Calif. USA, www.graphpad.com) and its non-linear regression analysis tools or other equivalent tools.
`O=C(O)CCC(=O)N1CCCC[C@H]1C(=O)NCC(=O)N1c2ccccc2C[C@H]1C(=O)NCc1nn[nH]n1` [Example C25, 4-Oxo-4-[(2S)-2-({2-Oxo-2-[(2S)-2-[(2H-1,2,3,4-Tetrazol-5-Ylmethyl)Carbamoyl]-2,3-Dihydro-1H-Indol-1-Yl]Ethyl}Carbamoyl)Piperidin-1-Yl]Butanoic Acid]: the IC50 fell in the range of 1 to 10 µM.
On the same count and under the same terms, for `CC[C@H](C)[C@H](NC(=O)Cc1ccccc1)C(=O)N[C@@H](CCCC(=O)O)C(=O)N1c2ccccc2C[C@H]1C(=O)NCc1nn[nH]n1` [Example C17, (5S)-5-[(2S,3S)-3-Methyl-2-(2-Phenylacetamido)Pentanamido]-6-Oxo-6-[(2S)-2-[(2H-1,2,3,4-Tetrazol-5-Ylmethyl)Carbamoyl]-2,3-Dihydro-1H-Indol-1-Yl]Hexanoic Acid] the value was 1 to 10 µM; for `CC[C@H](C)[C@H](NC(=O)C1C[C@@H]1C(=O)O)C(=O)NCC(=O)N1c2ccccc2C[C@H]1C(=O)NCc1nn[nH]n1` (stereo partly drawn) [Example A48, (1S,2S)-2-{[(1S,2S)-2-Methy-1-({2-Oxo-2-[(2S)-2-[(2H-1,2,3,4-Tetrazol-5-Ylmethyl)Carbamoyl]-2,3-Dihydro-1H-Indol-1-Yl]Ethyl}Carbamoyl)Butyl]Carbamoyl}Cyclopropane-1-Carboxylic Acid], 1 to 10 µM; for `CC[C@H](C)[C@H](NC(=O)CCC(C(=O)O)c1ccccc1)C(=O)NCC(=O)N1c2ccccc2C[C@H]1C(=O)NCc1nn[nH]n1` (stereo partly drawn) [Example A51, 4-{[(1S,2S)-2-Methyl-1-({2-Oxo-2-[(2S)-2-[(2H-1,2,3,4-Tetrazol-5-Ylmethyl)Carbamoyl]-2,3-Dihydro-1H-Indol-1-Yl]Ethyl}Carbamoyl)Butyl]Carbamoyl}-2-Phenylbutanoic Acid], below 0.1 µM.
Still for that read-out and setting: for `CC[C@H](C)[C@H](NC(=O)C[C@H](N)C(=O)O)C(=O)NCC(=O)N1c2ccccc2C[C@H]1C(=O)NCc1nn[nH]n1` [Example A39, (2S)-2-Amino-3-{[(1S,2S)-2-Methyl-1-({2-Oxo-2-[(2S)-2-[(2H-1,2,3,4-Tetrazol-5-Ylmethyl)Carbamoyl]-2,3-Dihydro-1H-Indol-1-Yl]Ethyl}Carbamoyl)Butyl]Carbamoyl}Propanoic Acid] the value was 0.1 to 1 µM; for `CC[C@H](C)[C@H](NC(=O)[C@H](C)CC(=O)OC)C(=O)NCC(=O)N1c2ccccc2C[C@H]1C(=O)NCc1nn[nH]n1` [Example A29, Methyl (3R)-3-Methyl-3-{[(1S,2S)-2-Methyl-1-({2-Oxo-2-[(2S)-2-[(2H-1,2,3,4-Tetrazol-5-Ylmethyl)Carbamoyl]-2,3-Dihydro-1H-Indol-1-Yl]Ethyl}Carbamoyl)Butyl]Carbamoyl}Propanoate], 0.1 to 1 µM; for `CC[C@H](C)[C@H](NC(=O)Cc1ccccc1)C(=O)NCC(=O)N1c2ccccc2C[C@H]1C(=O)NC(C)c1nn[nH]n1` (stereo partly shown) [Example B3], 1 to 10 µM.
With `O=C(O)CCC(=O)NC1(C(=O)NCC(=O)N2c3ccccc3C[C@H]2C(=O)NCc2nn[nH]n2)CCCC1` [Example C29, 3-{[1-({2-Oxo-2-[(2S)-2-[(2H-1,2,3,4-Tetrazol-5-Ylmethyl)Carbamoyl]-2,3-Dihydro-1H-Indol-1-Yl]Ethyl}Carbamoyl)Cyclopentyl]Carbamoyl}Propanoic Acid], the IC50 is above 10 µM.
Still for that read-out and setting: under `CC[C@@H](C)[C@H](NC(=O)Cc1ccccc1)C(=O)NCC(=O)N1c2ccccc2C[C@H]1C(=O)NCc1nn[nH]n1` [Example A42, (2S)-1-{2-[(2S,3R)-3-Methyl-2-(2-Phenylacetamido)Pentanamido]Acetyl}-N-(2H-1,2,3,4-Tetrazol-5-Ylmethyl)-2,3-Dihydro-1H-Indole-2-Carboxamide] stands 1 to 10 µM.
On the same count and under the same terms, for `CC[C@H](C)[C@H](NC(=O)Cc1ccccc1)C(=O)NCC(=O)N1c2c(cccc2NC(C)=O)C[C@H]1C(=O)NCc1nn[nH]n1` [Example C30, (2S)-7-Acetamido-1-{2-[(2S,3S)-3-Methyl-2-(2-Phenylacetamido)Pentanamido]Acetyl}-N-(2H-1,2,3,4-Tetrazol-5-Ylmethyl)-2,3-Dihydro-1H-Indole-2-Carboxamide] the value was above 10 µM; for `CC[C@H](C)[C@H](NC(=O)Cc1ccccc1)C(=O)NCC(=O)N1c2cc(NC(=O)OC(C)(C)C)ccc2C[C@H]1C(=O)NCc1nn[nH]n1` [Example C19, Tert-Butyl N-[(2S)-1-{2-[(2S,3S)-3-Methyl-2-(2-Phenylacetamido)Pentanamido]Acetyl}-2-[(2H-1,2,3,4-Tetrazol-5-Ylmethyl)Carbamoyl]-2,3-Dihydro-1H-Indol-6-Yl]Carbamate], 0.1 to 1 µM; for `CC[C@H](C)[C@H](NC(=O)CCC(=O)OCCOC(=O)C(C)(C)C)C(=O)NCC(=O)N1c2ccccc2C[C@H]1C(=O)NCc1nn[nH]n1` [Example A47, 2-[(2,2-Dimethylpropanoyl)Oxy]Ethyl 3-{[(1S,2S)-2-Methyl-1-({2-Oxo-2-[(2S)-2-[(2H-1,2,3,4-Tetrazol-5-Ylmethyl)Carbamoyl]-2,3-Dihydro-1H-Indol-1-Yl]Ethyl}Carbamoyl)Butyl]Carbamoyl}Propanoate], 0.1 to 1 µM.

As usually defined, the IC50 is the point on the concentration scale where inhibition reaches its midpoint.

The values are drawn from patent publication US10329324B2 (viDA Therapeutics Inc., priority 2013, dated 2019).
